Assay [1] deals with NCI-H358 cells (KRAS G12C mutant). Briefly: NCI-H358 cell proliferation inhibition (CellTiter-Glo). In kind it is cell-based. As to conditions: Homo sapiens, NCI-H358, 72 h; H358 cells (G12C mutation), 3 days, Table 6; read-out: NCI-H358 (IC50). On the technique in general: ATP-based viability assays read luminescence as a measure of living cells.
Assay [2] concerns MIA PaCa-2-AMGR drug-resistant cell line. Kind of assay: MIA PaCa-2-AMGR drug-resistant cell proliferation inhibitory activity test. As to conditions: 72 h, MIA PaCa-2-AMGR drug-resistant cells, 3 days incubation, CellTiter-Glo. It is filed as cell-based. Put shortly:
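Viability was read by CellTiter-Glo luminescence after 3 days of compound exposure (8 points, 5-fold serial dilution), with IC50 derived relative to untreated control. Cells: AMG510-resistant MIA PaCa-2 (selected stepwise to 1 μM AMG510), 4×10^3/well, DMEM + 10% FBS + 2.5% horse serum, 37° C.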

A word on the IC50: it is the midpoint of a concentration-inhibition curve. Regarding `COc1ncc(-c2ccc3ncnc(N4CCC5(CC4)CN(C(=O)/C=C/C(C)=O)C5)c3c2)cc1NS(=O)(=O)c1ccccc1F` [Example 150, (E)-2-fluoro-N-(2-methoxy-5-(4-(2-(4-oxopent-2-enoyl)-2,7-diazaspiro[3.5]nonan-7-yl)quinazolin-6-yl)pyridin-3-yl)benzenesulfonamide], the 50% inhibitory concentration (IC50) in assay [1] is 16.4 nM; in assay [2], 55.1 nM.

For the molecule `COc1ncc(-c2ccc3ncnc(N4CCC5(CC4)CN(C(=O)/C=C/C(C)=O)C5)c3c2)cc1NS(=O)(=O)c1c(F)cccc1F` [Example 49, (E)-2,6-difluoro-N-(2-methoxy-5-(4-(2-(4-oxopent-2-enoyl)-2,7-diazaspiro[3.5]nonan-7-yl)quinazolin-6-yl)pyridin-3-yl) benzenesulfonamide], the IC50 came out at 32 nM in assay [1] and 62.4 nM in assay [2].

`COc1ncc(-c2ccc3ncnc(N4CCC5(CC4)CN(C(=O)/C=C/C(C)=O)C5)c3c2)cc1NS(=O)(=O)c1c(F)cc(F)cc1F` [Example 101, (E)-2,4,6-trifluoro-N-(2-methoxy-5-(4-(2-(4-oxopent-2-enoyl)-2,7-diazaspiro[3.5]nonan-7-yl)quinazolin-6-yl)pyridin-3-yl)benzenesulfonamide]: the half-maximal inhibitory concentration (IC50) was determined as 11.6 nM in assay [1] and 35.9 nM in assay [2].

On to `COc1ncc(-c2ccc3ncnc(N4C5CCC4CN(C(=O)/C=C/C(C)=O)C5)c3c2)cc1NS(=O)(=O)c1ccc(F)cc1F` [Example 144, 2,4-difluoro-N-(2-methoxy-5-(4-(3-((E)-4-oxopent-2-enoyl)-3,8-diazabicyclo[3.2.1]octan-8-yl)quinazolin-6-yl)pyridin-3-yl)benzenesulfonamide], for which the IC50 in assay [1] was 47.8 nM; in assay [2] it was 56.6 nM.

Take `COc1ncc(-c2ccc3ncnc(C4CCN(C(=O)/C=C/C(C)=O)CC4)c3n2)cc1NS(=O)(=O)c1c(F)cccc1F` [Example 233, (E)-2,6-difluoro-N-(2-methoxy-5-(4-(1-(4-oxopent-2-enoyl)piperidin-4-yl)pyrido[3,2-d]pyrimidin-6-yl)pyridin-3-yl)benzenesulfonamide]: the IC50 was 5 nM in assay [1] and 16.7 nM in assay [2].

Take `COc1ncc(-c2ccc3ncnc(N4CCN(C(=O)/C=C/C(C)=O)CC4)c3c2)cc1NS(=O)(=O)c1ccc(C(F)(F)F)cc1F` [Example 124, (E)-2-fluoro-N-(2-methoxy-5-(4-(4-(4-oxopent-2-enoyl)piperazin-1-yl)quinazolin-6-yl)pyridin-3-yl)-4-(trifluoromethyl)benzenesulfonamide]: the values for the IC50 in assay [1] and in assay [2] were 19.7 nM and 83.9 nM, respectively.

For the molecule `COc1ncc(-c2ccc3ncnc(N4CCN(C5CN(C(=O)/C=C/C(C)=O)C5)CC4)c3c2)cc1NS(=O)(=O)c1ccc(F)cc1F` [Example 56, (E)-2,4-difluoro-N-(2-methoxy-5-(4-(4-(1-(4-oxopent-2-enoyl)azetidin-3-yl)piperazin-1-yl)quinazolin-6-yl)pyridin-3-yl)benzenesulfon-amide], the IC50 came out at 69.7 nM in assay [1] and 116 nM in assay [2].

In the case of `COc1ncc(-c2ccc3ncnc(N4CCN(C(=O)/C=C/C(C)=O)CC4)c3n2)cc1NS(=O)(=O)c1cccc(F)c1F` [Example 218, (E)-2,3-difluoro-N-(2-methoxy-5-(4-(4-(4-oxopent-2-enoyl)piperazin-1-yl)pyrido[3,2-d]pyrimidin-6-yl)pyridin-3-yl) benzene-sulfonamide], the IC50 came out at 25.6 nM in assay [1] and 16.1 nM in assay [2].

Turning to `COc1ncc(-c2ccc3ncnc(N4CCN(C(=O)/C=C/C(C)=O)CC4)c3c2)cc1NS(=O)(=O)c1cccc(F)c1F` [Example 90, (E)-2,3-difluoro-N-(2-methoxy-5-(4-(4-(4-oxopent-2-enoyl)piperazin-1-yl)quinazolin-6-yl)pyridin-3-yl)benzenesulfonamide], the IC50 in assay [1] turned out to be 54.5 nM; in assay [2], 106 nM.

Consider `COc1ncc(-c2ccc3ncnc(N4CCN(C(=O)/C=C/C(C)=O)CC4)c3c2)cc1NS(=O)(=O)c1ccc(F)cc1` [Example 92, (E)-4-fluoro-N-(2-methoxy-5-(4-(4-(4-oxopent-2-enoyl)piperazin-1-yl)quinazolin-6-yl)pyridin-3-yl)benzenesulfonamide], for which the IC50 in assay [1] is 16.7 nM; in assay [2], 56.9 nM.

For the molecule `COc1ncc(-c2ccc3ncnc(N4CCC5(CC4)CN(C(=O)/C=C/C(C)=O)C5)c3c2)cc1NS(=O)(=O)c1ccc(F)cc1Cl` [Example 171, (E)-2-chloro-4-fluoro-N-(2-methoxy-5-(4-(2-(4-oxopent-2-enoyl)-2,7-diazaspiro[3.5]nonan-7-yl)quinazolin-6-yl)pyridin-3-yl)benzene-sulfonamide], the IC50 in assay [1] amounted to 5.7 nM; in assay [2], 32.9 nM.

With `COc1ncc(-c2ccc3ncnc(N4CCN(C(=O)/C=C/C(C)=O)C[C@@H]4C)c3c2)cc1NS(=O)(=O)c1ccc(F)cc1` [Example 153, (S,E)-4-fluoro-N-(2-methoxy-5-(4-(2-methyl-4-(4-oxopent-2-enoyl)piperazin-1-yl)quinazolin-6-yl)pyridin-3-yl)benzenesulfonamide], the IC50 in assay [1] was 59.8 nM; in assay [2] it was 49.7 nM.

`COc1ncc(-c2ccc3ncnc(N4CCN(C(=O)/C=C/n5ccnn5)CC4)c3c2)cc1NS(=O)(=O)c1ccc(F)cc1F` [Example 10, (E)-N-(5-(4-(4-(3-(1H-1,2,3-triazol-1-yl)acryloyl)piperazin-1-yl)quinazolin-6-yl)-2-methoxypyridin-3-yl)-2,4-difluorobenzenesulfonamide]: the IC50 in assay [1] is 24.6 nM; in assay [2], 226 nM.

As for `COc1ncc(-c2ccc3ncnc(N4CCN(C(=O)/C=C/C(C)=O)[C@@H](CC#N)C4)c3c2)cc1NS(=O)(=O)c1c(F)cccc1F` [Example 116, (S,E)-N-(5-(4-(3-(cyanomethyl)-4-(4-oxopent-2-enoyl)piperazin-1-yl)quinazolin-6-yl)-2-methoxypyridin-3-yl)-2,6-difluorobenzenesulfonamide], the values for the IC50 in assay [1] and in assay [2] were 95.9 nM and 462 nM, respectively.

For `COc1ncc(-c2ccc3ncnc(N4CCN(C(=O)/C=C/C(C)=O)CC4)c3n2)cc1NS(=O)(=O)c1c(F)cc(F)cc1F` [Example 219, (E)-2,4-trifluoro-N-(2-methoxy-5-(4-(4-(4-oxopent-2-enoyl)piperazin-1-yl)pyrido[3,2-d]pyrimidin-6-yl)pyridin-3-yl) benzene-sulfonamide], the IC50 in assay [1] amounted to 7.3 nM; in assay [2], 6.4 nM.

With `COc1ncc(-c2ccc3ncnc(N4CCN(C(=O)/C=C/C(C)=O)CC4)c3c2)cc1NS(=O)(=O)c1ccccc1C` [Example 93, (E)-N-(2-methoxy-5-(4-(4-(4-oxopent-2-enoyl)piperazin-1-yl)quinazolin-6-yl)pyridin-3-yl)-2-methylbenzenesulfonamide], the IC50 in assay [1] came out at 18 nM; in assay [2] it was 114 nM.

Take `COc1ncc(-c2ccc3ncnc(N4CCN(C(=O)/C=C/C(C)=O)CC4)c3c2)cc1NS(=O)(=O)c1c(F)cncc1F` [Example 102, (E)-3,5-difluoro-N-(2-methoxy-5-(4-(4-(4-oxopent-2-enoyl)piperazin-1-yl)quinazolin-6-yl)pyridin-3-yl)pyridine-4-sulfonamide]: the IC50 is 73 nM in assay [1] and 908 nM in assay [2].

With `COc1ncc(-c2ccc3ncnc(N4CCN(C(=O)/C=C/C(C)=O)C[C@@H]4C)c3c2)cc1NS(=O)(=O)c1ccc(F)cc1Cl` [Example 174, (S,E)-2-chloro-4-fluoro-N-(2-methoxy-5-(4-(2-methyl-4-(4-oxopent-2-enoyl)piperazin-1-yl)quinazolin-6-yl)pyridin-3-yl)benzene-sulfonamide], the IC50 is 15.8 nM in assay [1] and 26.3 nM in assay [2].

In the case of `COc1ncc(-c2ccc3ncnc(N4CCN(C(=O)/C=C/C(C)=O)C[C@@H]4C)c3c2)cc1NS(=O)(=O)c1sc(C)nc1C` [Example 173, (S,E)-N-(2-methoxy-5-(4-(2-methyl-4-(4-oxopent-2-enoyl)piperazin-1-yl)quinazolin-6-yl)pyridin-3-yl)-2,4-dimethyl-thiazole-5-sulfonamide], the IC50 in assay [1] was found to be 6.8 nM; in assay [2], 62.6 nM.

On to `COc1ncc(-c2ccc3ncnc(C4CCN(C(=O)/C=C/C(C)=O)CC4)c3n2)cc1NS(=O)(=O)c1c(F)cc(F)cc1F` [Example 231, (E)-2,4,6-trifluoro-N-(2-methoxy-5-(4-(1-(4-oxopent-2-enoyl)piperidin-4-yl)pyrido[3,2-d]pyrimidin-6-yl)pyridin-3-yl)benzenesulfonamide], for which the IC50 in assay [1] amounted to 3.7 nM; in assay [2], 3.6 nM.

Regarding `COc1ncc(-c2ccc3ncnc(N4CCN(C(=O)/C=C/C(C)=O)CC4)c3n2)cc1NS(=O)(=O)c1c(F)cccc1F` [Example 131, (E)-2,6-difluoro-N-(2-methoxy-5-(4-(4-(4-oxopent-2-enoyl)piperazin-1-yl)pyrido[3,2-d]pyrimidin-6-yl)pyridin-3-yl)benzenesulfonamide], the IC50 worked out at 5.2 nM in assay [1] and 29.6 nM in assay [2].

As to `COc1ncc(-c2ccc3ncnc(N4CC5CCC(C4)N5C(=O)/C=C/C(C)=O)c3c2)cc1NS(=O)(=O)c1sc(C)nc1C` [Example 176, N-(2-methoxy-5-(4-(8-((E)-4-oxopent-2-enoyl)-3,8-diazabicyclo [3.2.1]octan-3-yl)quinazolin-6-yl)pyridin-3-yl)-2,4-dimethyl-thiazole-5-sulfonamide], the IC50 was found to be 27 nM in assay [1] and 48.6 nM in assay [2].

With `COc1ncc(-c2ccc3ncnc(N4CCN(C(=O)/C=C/C(C)=O)CC4)c3c2)cc1NS(=O)(=O)c1c(F)cc(F)cc1F` [Example 99, (E)-2,4,6-trifluoro-N-(2-methoxy-5-(4-(4-(4-oxopent-2-enoyl)piperazin-1-yl)quinazolin-6-yl)pyridin-3-yl)benzenesulfonamide], the IC50 was 9.6 nM in assay [1] and 72.9 nM in assay [2].

For the origin of these results see patent US20250145589A1, “PYRIDINE DERIVATIVE AND USE THEREOF” (SICHUAN HUIYU PHARMACEUTICAL CO., LTD., priority 2021, published 2025).
